Earlier results, collected in patent US11833157B2, “Precipitation resistant small molecule drug formulations” (Xeris Pharmaceuticals, Inc., priority 2017, dated 2023).

Tested on: febrile seizures
Conditions: short term diazepam prophylaxis at times of fever; 39% without

CN1C(=O)CN=C(c2ccccc2)c2cc(Cl)ccc21 [diazepam]
18 month recurrence rate: 12%
